This is an account of results in US20060275333A1, “Composition with beads for treatment of contact dermatitis” (Humco Holding Group, Inc., priority 2005, published 2006).

For series [1] the following is noted: exposed to 50 micrograms of purified urushiol; cited from earlier work.
Series [2] concerns Epiderm normal human-derived epidermal keratinocytes. The series is described as follows: MTT assay of tissue viability of Epiderm artificial skin. In kind it is cell-based. The following applies: after the 48-hour time period; untreated tissues = 100%; same test materials. The protocol:
The efficacy of nonylphenol ethoxylate on urushiol-induced dermatitis was evaluated by ELISA and MTT techniques. The MTT evaluation was based on a technique first described in Mosmann, T., “Rapid calorimetric assay for cellular growth and survival: application to proliferation and cytotoxicity assays,” J. Immunol. Methods, Dec. 16, 1983, 65(1-2):55-63. The analysis is based on the compound [3-(4,5-dimethylthiazol-2-yl)-2,5-diphenyltetrazolium bromide], commonly referred to as MTT. As reported by Mosmann, mitochondrial dehydrogenase enzyme from viable cells can cleave the tetrazolium rings of the pale yellow MTT and form dark blue formazin crystals. The crystals cannot permeate cell membranes, and thus tend to accumulate within healthy cells. […] The formazin is extracted with isopropanol and measured spectrophotometrically. […]
Epidermal irritation often is associated with a loss of viable ketinocytes. Therefore, changes in tissue viability after exposure to urushiol and the test were assessed using the MTT assay described above. […] After the extraction, a 200 μl sample from each well of the isopropanol/MTT mixture was transferred to a 96-well plate and the absorbance of the sample was read at 540 nm with a plate reader using 200 μl of isopropanol as the blank.
The mean MTT absorbance value for the untreated tissues was calculated and used to represent 100% tissue viability. […]
On the technique in general: Tetrazolium assays rely on reduction of a dye to a coloured formazan, in cell work by metabolically active cells.

The next series has as its system IL-1α. The series is described as follows: IL-1α release from Epiderm artificial skin, ELISA of culture media. In kind it is cell-based, human. From the text:
When urushiol is applied to human skin it can elicit the synthesis and release of several key inflammatory cytokines, including IL-1α, IL-1β, IL-6, and IL-8. Release of these cytokines also has been noted in cultured keratinocyte models after the application of urushiol. IL-1α and IL-6 are synthesized and stored in keratinocytes and have been identified as mediators of skin irritation and inflammation. Release of these two cytokines can be measured directly in tissue culture media by a calorimetric enzyme linked immunosorbent assay (ELISA). In such measurements, antibodies covalently linked to a solid support will bind any IL-1α or IL-6 present in spent culture media samples. […] Upon addition of an appropriate color substrate the acetylcholinesterase enzyme will generate a colored end product that can be measured spectrophotometrically. […]
The Epidermic tissue samples were stored at 2-8° C. until used. […] The collected culture media were stored at −75±5° C. until analyzed for IL-1α and IL-6 levels. The IL-1α and IL-6 levels were determined by comparison with a standard curve generated from samples having known concentrations of these two cytokines. […] Absorbance values for the test materials and untreated samples were then used to estimate the amount of cytokine present in each sample.
(In general: In an ELISA, binding on a coated surface is turned into a signal by an enzyme label.)

A further series relates to IL-6. The series is described as follows: IL-6 release from Epiderm artificial skin, ELISA of culture media. In kind it is cell-based, human. The source says:
When urushiol is applied to human skin it can elicit the synthesis and release of several key inflammatory cytokines, including IL-1α, IL-1β, IL-6, and IL-8. Release of these cytokines also has been noted in cultured keratinocyte models after the application of urushiol. IL-1α and IL-6 are synthesized and stored in keratinocytes and have been identified as mediators of skin irritation and inflammation. Release of these two cytokines can be measured directly in tissue culture media by a calorimetric enzyme linked immunosorbent assay (ELISA). In such measurements, antibodies covalently linked to a solid support will bind any IL-1α or IL-6 present in spent culture media samples. A second antibody that is covalently attached to an acetylcholinesterase enzyme will in turn detect the bound cytokines. Upon addition of an appropriate color substrate the acetylcholinesterase enzyme will generate a colored end product that can be measured spectrophotometrically.
Testing of the invention herein was conducted using an artificial skin product designed for toxicity testing and sold under the name Epiderm® by Mat Tek Corporation of Ashland, Massachusetts. This artificial skin product consists of normal human-derived epidermal keratinocytes that have been cultured to form a multilayered, highly differentiated model of the human epidermis. […] Markers of mature epidermis specific differentiation such as profilaggrin, the K1/K10 cytokeratin pair, involucrin, and type I epidermal transglutaminase have been localized in this product. The product is also mitotically and metabolically active.
The Epidermic tissue samples were stored at 2-8° C. until used. The analyses were conducted with an ELISA test kit from Cayman Chemicals of Ann Arbor, Michigan, with all buffers and reagents being prepared according to the kit's instructions and allowed to come to room temperature. Prior to use, the tissues were removed from the agarose shipping tray and placed into a 6-well plate containing 1.0 ml of assay medium from the test kit, at 37±2° C. The tissues were allowed to incubate for one hour at 37±2° C. and 5±1% CO2. After this initial incubation, the assay medium was replaced with 1 ml of fresh medium at 37±2° C. […] The collected culture media were stored at −75±5° C. until analyzed for IL-1α and IL-6 levels. The IL-1α and IL-6 levels were determined by comparison with a standard curve generated from samples having known concentrations of these two cytokines. […] Absorbance values for the test materials and untreated samples were then used to estimate the amount of cytokine present in each sample.

[3] abbreviates: 4 Hours, Epiderm tissue, 100 μl test material, Urushiol = control lotion 0.05% 2-deoxy-urushiol, Nonylphenol Ethoxylate = control lotion + 0.2% w/v nonyl phenyl ethoxylate.

Each structure is given as a SMILES string.

As for `CCCCCCCCCCCCCCCc1cccc(O)c1O` [Urushiol], the “adult Americans who get a rash” value in series [1] is given as 80-90%. In series [2], the “Percent Viability (MTT Assay)” value is 88 ± 5%. In addition, the “IL-1α Accumulation in Cell Culture Media” value was 16.1 ± 5.2 pg/mL in the series with IL-1α (setting [3]) and 32.6 ± 6.3 pg/mL in the series with IL-1α (12 Hours, same test materials). Also, the “IL-6 Accumulation in Cell Culture Media” value with IL-6 (setting [3]) came out at 1.9 ± 0.4 pg/mL; with IL-6 (12 Hours, same test materials), 5.1 ± 0.4 pg/mL; in the series on IL-6 (24 Hours, same test materials) it was 9.4 ± 0.3 pg/mL; in the series with IL-6 (48 Hours, same test materials), 16.4 ± 1.4 pg/mL.
